In US10689362B2, “Quinoxaline compounds as type III receptor tyrosine kinase inhibitors” (Development Center for Biotechnology, priority 2016, dated 2020):

Experiments:
[1] = molecular target: FLT3 kinase (Homo sapiens (Human), UniProt P36888); test: FLT3 kinase assay (radiometric); format: biochemical
Method: (§1) Inhibition of FLT3 kinase activity by a test compound disclosed herein was estimated by radiometric assay. Standard assay conditions were 5 ng of recombinant FLT3 (Thermo Fisher) with 2 μg of substrate Poly-(Glu 4:Tyr 1) (sigma) in the assay buffer in kinase reaction buffer (10 mM MOPS pH 7.0, 0.21 mM EDTA, 0.5% glycerol, 0.001% Brij-35, 0.01 2-mercaptoehtanol, 1 mg/ml BSA, MgCl2 10 mM, 10 μM ATP, 0.1 μCi per well [^33P]-ATP, in the presence of test compound (diluted in final concentration of 4% DMSO) or DMSO control, with a final volume of 25 μl for 60 minutes at 30° C. The reaction was stopped by adding 5 μl of 3% phosphoric acid solution. Total reaction solution was then harvested onto a filter plate (UniFilter-96 GF/B, PerkinElmer), and washed 20 times for 5 min with dH2O. 30 μl of MicroScint™-20 Cocktail (PerkinElmer) was added to dried plate. The plate was sealed and counted using a TopCount scintillation detector (PerkinElmer). […] The IC50 values of quinoxaline compounds of this invention against FLT3 kinase were determined using the GraphPad Prism 5 software.
(§2) The IC50 values for selected quinoxaline compounds of this invention against CSF-1R, c-KIT, FLT3, and PDGFRβ are summarized in Table 3.

[2] = molecular target: c-KIT kinase (Homo sapiens (Human), UniProt P10721); test: c-KIT kinase assay (radiometric); format: biochemical
Sequence of c-KIT kinase (P10721 26-976): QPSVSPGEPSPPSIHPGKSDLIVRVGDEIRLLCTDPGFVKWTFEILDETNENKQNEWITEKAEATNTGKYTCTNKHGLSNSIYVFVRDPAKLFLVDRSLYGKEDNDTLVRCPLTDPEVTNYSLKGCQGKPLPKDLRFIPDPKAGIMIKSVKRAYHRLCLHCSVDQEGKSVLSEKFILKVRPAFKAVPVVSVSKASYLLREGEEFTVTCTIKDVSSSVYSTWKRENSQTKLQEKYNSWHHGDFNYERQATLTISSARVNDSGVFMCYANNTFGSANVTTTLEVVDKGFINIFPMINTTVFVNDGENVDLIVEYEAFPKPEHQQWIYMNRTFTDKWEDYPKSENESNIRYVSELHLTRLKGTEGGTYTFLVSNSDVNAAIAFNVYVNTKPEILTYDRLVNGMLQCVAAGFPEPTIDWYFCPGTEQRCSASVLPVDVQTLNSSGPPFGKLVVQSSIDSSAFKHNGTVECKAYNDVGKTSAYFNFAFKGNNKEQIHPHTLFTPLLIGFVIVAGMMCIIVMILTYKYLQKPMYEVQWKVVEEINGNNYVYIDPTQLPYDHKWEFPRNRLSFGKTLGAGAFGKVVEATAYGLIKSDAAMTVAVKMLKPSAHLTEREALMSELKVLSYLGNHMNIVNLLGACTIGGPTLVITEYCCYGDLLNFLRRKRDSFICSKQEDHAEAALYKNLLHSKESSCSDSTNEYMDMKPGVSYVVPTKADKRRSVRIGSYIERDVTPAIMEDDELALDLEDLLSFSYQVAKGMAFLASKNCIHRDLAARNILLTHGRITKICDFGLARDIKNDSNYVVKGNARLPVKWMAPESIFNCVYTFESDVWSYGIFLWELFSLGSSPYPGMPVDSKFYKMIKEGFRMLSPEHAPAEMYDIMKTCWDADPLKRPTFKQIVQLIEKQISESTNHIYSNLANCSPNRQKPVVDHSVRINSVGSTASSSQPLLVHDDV
Method: as §1, with “of c-KIT” for “of FLT3”, “were 20” for “were 5”, “recombinant c-Kit (SignalChem)” for “recombinant FLT3 (Thermo Fisher)”, “BSA,” for “BSA, MgCl2”, “10 mM MgCl2, 10 mM MnCl2,” for “10 mM,”, “against c-KIT” for “against FLT3”
as §2

[3] = molecular target: PDGFRβ kinase (Homo sapiens (Human), UniProt P09619); test: PDGFRβ kinase assay (radiometric); format: biochemical; details: bound
Sequence of PDGFRβ kinase (P09619 33-1106): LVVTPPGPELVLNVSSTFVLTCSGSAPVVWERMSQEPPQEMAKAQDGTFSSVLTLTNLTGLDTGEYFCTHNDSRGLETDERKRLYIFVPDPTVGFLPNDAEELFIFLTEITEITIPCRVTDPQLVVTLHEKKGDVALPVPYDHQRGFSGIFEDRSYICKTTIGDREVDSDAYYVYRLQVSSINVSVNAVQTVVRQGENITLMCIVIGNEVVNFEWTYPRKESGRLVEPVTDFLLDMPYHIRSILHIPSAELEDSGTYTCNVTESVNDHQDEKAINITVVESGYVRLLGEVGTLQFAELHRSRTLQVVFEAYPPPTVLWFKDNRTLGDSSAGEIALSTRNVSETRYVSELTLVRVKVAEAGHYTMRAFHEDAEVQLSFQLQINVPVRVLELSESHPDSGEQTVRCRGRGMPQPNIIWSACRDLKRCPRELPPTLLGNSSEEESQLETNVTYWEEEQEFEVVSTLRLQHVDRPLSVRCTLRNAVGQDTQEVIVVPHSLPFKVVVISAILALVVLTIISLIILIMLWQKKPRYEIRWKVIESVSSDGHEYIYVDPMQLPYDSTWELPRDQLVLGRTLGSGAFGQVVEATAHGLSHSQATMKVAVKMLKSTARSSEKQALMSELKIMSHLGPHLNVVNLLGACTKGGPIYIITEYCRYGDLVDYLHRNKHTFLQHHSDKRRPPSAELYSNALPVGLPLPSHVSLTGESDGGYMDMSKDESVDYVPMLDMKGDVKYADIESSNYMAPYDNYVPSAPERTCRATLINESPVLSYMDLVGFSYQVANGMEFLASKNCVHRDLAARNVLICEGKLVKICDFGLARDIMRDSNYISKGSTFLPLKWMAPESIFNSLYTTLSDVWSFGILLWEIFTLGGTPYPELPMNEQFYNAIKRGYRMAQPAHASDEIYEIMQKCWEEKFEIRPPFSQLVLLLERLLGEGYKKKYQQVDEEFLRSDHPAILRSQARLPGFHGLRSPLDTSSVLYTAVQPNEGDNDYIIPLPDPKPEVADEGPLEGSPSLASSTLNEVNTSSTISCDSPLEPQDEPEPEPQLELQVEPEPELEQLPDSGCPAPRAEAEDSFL
Method: Inhibition of PDGFRβ kinase activity by a test compound disclosed herein was estimated by radiometric assay. Standard assay conditions were 10 ng of recombinant PDGFRβ (SignalChem) with 2 μg of substrate Poly-(Glu 4:Tyr 1) (sigma) in the assay buffer in kinase reaction buffer (10 mM MOPS pH 7.0, 0.21 mM EDTA, 0.5% glycerol, 0.001% Brij-35, 0.01 2-mercaptoehtanol, 1 mg/ml BSA, 10 mM MgCl2, 10 mM MnCl2, 10 μM ATP, 0.1 μCi per well [^33P]-ATP), in the presence of test compound (diluted in final concentration of 4% DMSO) or DMSO control, with a final volume of 25 μl for 60 minutes at 30° C. The reaction was stopped by adding 5 μl of 3% phosphoric acid solution. Total reaction solution was then harvested onto a filter plate (UniFilter-96 GF/B, PerkinElmer), and washed 20 times for 5 min with dH2O. 30 μl of MicroScint™-20 Cocktail (PerkinElmer) was added to dried plate. The plate was sealed and counted using a TopCount scintillation detector (PerkinElmer). […] The IC50 values of quinoxaline compounds of this invention against PDGFRβ kinase were determined using the GraphPad Prism 5 software.
as §2

[4] = molecular target: CSF-1R kinase (Homo sapiens (Human), UniProt P07333); test: CSF-1R kinase assay (AlphaScreen); format: biochemical
Sequence of CSF-1R kinase (P07333 20-972): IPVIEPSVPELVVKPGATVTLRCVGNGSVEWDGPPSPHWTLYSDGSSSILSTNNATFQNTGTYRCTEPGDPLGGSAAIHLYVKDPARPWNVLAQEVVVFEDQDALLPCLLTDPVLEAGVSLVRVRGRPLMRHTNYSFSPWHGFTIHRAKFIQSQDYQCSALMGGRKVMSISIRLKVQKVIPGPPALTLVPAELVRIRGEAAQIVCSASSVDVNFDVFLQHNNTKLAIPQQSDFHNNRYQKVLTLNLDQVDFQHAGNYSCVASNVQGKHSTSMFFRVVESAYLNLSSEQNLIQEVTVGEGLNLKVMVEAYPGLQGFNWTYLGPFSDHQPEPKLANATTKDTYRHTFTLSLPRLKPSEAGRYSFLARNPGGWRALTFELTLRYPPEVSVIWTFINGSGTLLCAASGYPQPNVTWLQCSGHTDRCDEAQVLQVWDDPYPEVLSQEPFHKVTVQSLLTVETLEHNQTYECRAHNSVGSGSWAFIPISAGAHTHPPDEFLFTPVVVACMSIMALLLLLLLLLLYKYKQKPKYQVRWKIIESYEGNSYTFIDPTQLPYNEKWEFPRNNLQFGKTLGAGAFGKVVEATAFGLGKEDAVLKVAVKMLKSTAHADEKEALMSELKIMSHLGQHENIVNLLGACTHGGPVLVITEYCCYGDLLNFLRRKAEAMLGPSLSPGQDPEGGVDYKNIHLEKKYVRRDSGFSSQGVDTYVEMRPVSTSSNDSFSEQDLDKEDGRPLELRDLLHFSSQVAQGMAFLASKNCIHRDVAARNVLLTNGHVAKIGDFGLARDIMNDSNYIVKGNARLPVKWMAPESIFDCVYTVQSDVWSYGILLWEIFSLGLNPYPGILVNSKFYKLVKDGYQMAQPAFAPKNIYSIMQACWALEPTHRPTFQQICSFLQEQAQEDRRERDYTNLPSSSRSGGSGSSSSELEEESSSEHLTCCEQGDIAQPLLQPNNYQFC
Method: Inhibition of CSF-1R kinase activity by a test compound disclosed herein was estimated by AlphaScreen (PerkinElmer). […] Reactions were incubated at 30° C. for 45 min and stopped by adding 5 μL of 50 mM EDTA. Analysis of resulting product using an AlphaScreen kit, and counted with Enspire Alpha (PerkinElmer). […] The IC50 values of quinoxaline compounds of this invention against CSF-1R kinase were determined using the GraphPad Prism 5 software.

[5] = test system: THP-1 human acute monocytic leukemia cell harboring NRAS G12D mutation; test: THP-1 cell proliferation assay (counter screen, CellTiter-96); format: cell-based; details: Cytotoxicity, THP-1 cells (counter screen), 72 hours
Method: (§3) Inhibition of cell growth by compounds was measured using CellTiter™-96 assay. The cytotoxicity of compounds was evaluated in CSF-1-dependent M-NFS-60 mouse myeloid leukemia cell, FLT3 signal addicted MV4-11 human acute myeloid leukemia cell with FLT3-ITD mutation, c-KIT signal addicted Kasumi-1 human acute myeloid leukemia cell with c-KIT N822K activating mutation, and THP-1 human acute monocytic leukemia cell harboring NRAS G12D mutation.
THP-1 human acute monocytic leukemia cells harbor NRAS G12D mutation, which renders cell proliferate independently of class III RTKs signal. […] Cells were allowed to expand until reaching saturation at which point they were subcultured or harvested for assay use.
(§4) M-NFS-60, Kasumi-1, MV4-11 and THP-1 cells were seeded into 96-well plates at 2000, 64000, 6500, and 5000 cells/well, respectively, and incubated at 37° C., 5% CO2 overnight. Then, these seeded cells were treated with increasing concentrations of the test compounds and incubated for another 72 hours. At the end of the incubation, CellTiter96® AQueous One Solution Reagent (Promega) was added and incubated for 4 hours. Cell viability was determined by measuring absorbance at 490 nm using EMax® microplate reader (Molecular Devices).

[6] = test system: Kasumi-1 human acute myeloid leukemia cell with c-KIT N822K activating mutation; test: Kasumi-1 cell proliferation assay (CellTiter-96); format: cell-based; details: Cytotoxicity, Kasumi-1 cells, 72 hours
Method: as §3
(§5) The compounds disclosed herein were tested in Kasumi cell proliferation assay to determine their cellular potency against c-KIT kinase. Kasumi human acute myeloid leukemia cells harbor ligand-independent N822K c-KIT activating mutation, thus the cell proliferation relied on c-KIT signal. Inhibition of c-KIT kinase activity will cause reduced growth and/or cell death. […] Cells were allowed to expand until reaching saturation at which point they were subcultured or harvested for assay use.
as §4

[7] = test system: MV4-11 human acute myeloid leukemia cell with FLT3-ITD mutation; test: MV4-11 cell proliferation assay (CellTiter-96); format: cell-based; details: Cytotoxicity, MV4-11 cells, 72 hours
Method: as §3
as §5, with “MV4-11” for “Kasumi”, “FLT3” for “c-KIT”, “FLT3-ITD” for “N822K c-KIT”, “which render its” for “thus the cell”, “FLT3-ITD dependent.” for “relied on c-KIT signal.”
as §4

[8] = test system: CSF-1-dependent M-NFS-60 mouse myeloid leukemia cell; test: M-NFS-60 cell proliferation assay (CellTiter-96); format: cell-based; details: Cytotoxicity, M-NFS-60 cells, 72 hours
Method: as §3
The compounds disclosed herein were tested in M-NFS-60 cell proliferation assay to determine their cellular potency against CSF-1R. […] Inhibition of CSF-1R kinase activity will cause reduced growth and/or cell death. […] Cells were allowed to expand until reaching saturation at which point they were subcultured or harvested for assay use.
as §4

Sequence of FLT3 kinase (P36888 27-993): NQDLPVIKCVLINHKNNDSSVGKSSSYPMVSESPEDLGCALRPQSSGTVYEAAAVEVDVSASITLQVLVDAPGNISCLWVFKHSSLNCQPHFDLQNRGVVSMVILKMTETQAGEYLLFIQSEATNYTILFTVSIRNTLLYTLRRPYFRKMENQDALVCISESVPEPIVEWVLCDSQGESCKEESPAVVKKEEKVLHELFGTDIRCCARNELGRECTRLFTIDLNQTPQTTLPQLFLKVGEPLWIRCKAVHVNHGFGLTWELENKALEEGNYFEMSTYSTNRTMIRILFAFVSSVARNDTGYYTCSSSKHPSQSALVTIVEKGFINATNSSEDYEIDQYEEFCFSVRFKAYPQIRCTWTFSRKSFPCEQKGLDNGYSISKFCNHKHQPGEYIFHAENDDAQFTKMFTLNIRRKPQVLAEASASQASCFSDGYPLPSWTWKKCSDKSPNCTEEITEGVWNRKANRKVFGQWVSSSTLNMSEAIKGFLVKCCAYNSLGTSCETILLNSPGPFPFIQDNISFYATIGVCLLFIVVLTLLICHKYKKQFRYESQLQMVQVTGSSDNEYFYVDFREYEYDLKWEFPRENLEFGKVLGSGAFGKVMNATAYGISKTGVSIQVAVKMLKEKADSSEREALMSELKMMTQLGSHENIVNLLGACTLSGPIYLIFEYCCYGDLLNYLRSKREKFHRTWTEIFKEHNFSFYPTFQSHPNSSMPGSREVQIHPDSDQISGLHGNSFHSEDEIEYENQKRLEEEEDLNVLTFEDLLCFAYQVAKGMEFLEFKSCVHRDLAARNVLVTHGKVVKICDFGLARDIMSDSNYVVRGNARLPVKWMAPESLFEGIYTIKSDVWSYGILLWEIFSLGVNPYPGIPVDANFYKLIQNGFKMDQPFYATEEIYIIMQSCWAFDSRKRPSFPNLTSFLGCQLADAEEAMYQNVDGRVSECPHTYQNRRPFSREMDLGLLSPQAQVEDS

SMILES	IC50 ([1]; bound)	IC50 ([2]; class symbol)	IC50 [3]	IC50 ([4]; class symbol)	IC50 [5]	IC50 [6]	IC50 [7]	IC50 [8]	IC50 ([4]; bound)	IC50 ([2]; bound)	IC50 ([1]; class symbol)
COc1ccc(COc2ccc(Nc3ccc4ncc(OC)nc4c3C#N)cc2OC)cc1 [Example 3, 3-methoxy-6-((3-methoxy-4-((4-methoxybenzyl)oxy)phenyl)amino)quinoxaline-5-carbonitrile]	> 1000 nM	100 to 300 nM	> 1000 nM	300 to 1000 nM	–	–	–	–	–	–	–
COc1cc(Nc2ccc3ncc(N4CCOCC4)nc3c2C#N)ccc1OCc1ccco1 [Example 122, 6-((4-(furan-2-ylmethoxy)-3-methoxyphenyl)amino)-3-morpholinoquinoxaline-5-carbonitrile]	> 1000 nM	< 100 nM	> 1000 nM	100 to 300 nM	> 10000 nM	300 to 1000 nM	1000 to 10000 nM	1000 to 10000 nM	–	–	–
COc1cnc2ccc(Nc3ccc(NCc4ccc(C(F)(F)F)cc4)nc3)c(C#N)c2n1 [Example 4, 3-methoxy-6-((6-((4-(trifluoromethyl)benzyl)amino)pyridin-3-yl)amino)quinoxaline-5-carbonitrile]	> 1000 nM	300 to 1000 nM	> 1000 nM	–	> 10000 nM	1000 to 10000 nM	1000 to 10000 nM	> 10000 nM	> 1000 nM	–	–
COc1ccc(COc2ccc(Nc3ccc4ncc(OCCN(C)C)nc4c3C#N)cc2OC)cc1 [Example 13, 3-(2-(dimethylamino)ethoxy)-6-((3-methoxy-4-((4-methoxybenzyl)oxy)phenyl)amino)quinoxaline-5-carbonitrile]	> 1000 nM	300 to 1000 nM	> 1000 nM	100 to 300 nM	1000 to 10000 nM	1000 to 10000 nM	1000 to 10000 nM	1000 to 10000 nM	–	–	–
COc1cnc2ccc(Nc3ccc(OCc4ccc(OC)c(C#N)c4)c(OC)c3)c(C#N)c2n1 [Example 140, 6-((4-((3-cyano-4-methoxybenzyl)oxy)-3-methoxyphenyl)amino)-3-methoxyquinoxaline-5-carbonitrile]	> 1000 nM	–	> 1000 nM	100 to 300 nM	–	–	–	–	–	> 1000 nM	–
COc1cc(Nc2ccc3ncc(N4CCOCC4)nc3c2C#N)ccc1OCc1cncn1C [Example 55, 6-((3-methoxy-4-((1-methyl-1H-imidazol-5-yl)methoxy)phenyl)amino)-3-morpholinoquinoxaline-5-carbonitrile]	> 1000 nM	300 to 1000 nM	> 1000 nM	–	–	–	–	–	> 1000 nM	–	–
COc1cc(Nc2ccc3ncc(N4CCOCC4)nc3c2C#N)ccc1OCC1CC1 [Example 36, 6-((4-(cyclopropylmethoxy)-3-methoxyphenyl)amino)-3-morpholinoquinoxaline-5-carbonitrile]	> 1000 nM	100 to 300 nM	> 1000 nM	300 to 1000 nM	> 10000 nM	300 to 1000 nM	1000 to 10000 nM	> 10000 nM	–	–	–
COc1ccc(COc2ccc(Nc3ccc4ncc(-n5ccnc5)nc4c3C#N)cc2OC)cn1 [Example 70, 3-(1H-imidazol-1-yl)-6-((3-methoxy-4-((6-methoxypyridin-3-yl)methoxy)phenyl)amino)quinoxaline-5-carbonitrile]	> 1000 nM	–	> 1000 nM	< 100 nM	–	–	–	–	–	> 1000 nM	–
COc1cc(Nc2ccc3ncc(N4CCOCC4)nc3c2C#N)ccc1OCc1ccc(C)[n+]([O-])c1 [Example 146, 6-((3-methoxy-4-((6-methyl-1-(λ^1-oxidaneyl)-1λ^4-pyridin-3-yl)methoxy)phenyl)amino)-3-morpholinoquinoxaline-5-carbonitrile]	–	100 to 300 nM	–	–	> 10000 nM	1000 to 10000 nM	1000 to 10000 nM	1000 to 10000 nM	–	–	100 to 300 nM
COc1cc(Nc2ccc3ncc(N4CCOCC4)nc3c2C#N)ccc1OCc1ccccn1 [Example 57, 6-((3-methoxy-4-(pyridin-2-ylmethoxy)phenyl)amino)-3-morpholinoquinoxaline-5-carbonitrile]	> 1000 nM	300 to 1000 nM	> 1000 nM	–	–	–	–	–	> 1000 nM	–	–
